Test results taken from the NIST ThermoML archive (doi:10.1016/j.tca.2006.10.025).

Assays:
[1] = molar heat capacity at constant pressure; xn = mol fraction of the nth substance listed; details: 303.15 K, 101 kPa, Liquid, Small sample (50 mg) DSC
[2] = excess molar enthalpy (molar enthalpy of mixing); xn = mol fraction of the nth substance listed; details: 303.15 K, 101 kPa, Liquid, Flow calorimetry
[3] = molar heat capacity at constant pressure; details: 101.33 kPa, Liquid, Small sample (50 mg) DSC
[4] = 303.15 K; 101.33 kPa; Liquid; Vibrating tube method

CCCCCCO [hexan-1-ol] + C[S+](C)[O-]
Details | excess molar enthalpy [kcal/mol] | molar heat capacity at constant pressure [J/K/mol]
[1], x2 = 0.1102 | – | 239.9
[1], x2 = 0.1949 | – | 231.7
[1], x2 = 0.2888 | – | 222.5
[1], x2 = 0.3759 | – | 216.5
[1], x2 = 0.4388 | – | 211.5
[1], x2 = 0.535 | – | 199.2
[1], x2 = 0.5365 | – | 199.4
[1], x2 = 0.6311 | – | 190.4
[1], x2 = 0.7339 | – | 181.8
[1], x2 = 0.8062 | – | 171
[1], x2 = 0.8704 | – | 164.7
[1], x2 = 0.9359 | – | 158.8
[2], x2 = 0.0682 | 0.0863 | –
[2], x2 = 0.1277 | 0.153 | –
[2], x2 = 0.1801 | 0.202 | –
[2], x2 = 0.2265 | 0.241 | –
[2], x2 = 0.3053 | 0.286 | –
[2], x2 = 0.3694 | 0.31 | –
[2], x2 = 0.4677 | 0.325 | –
[2], x2 = 0.5394 | 0.326 | –
[2], x2 = 0.6374 | 0.307 | –
[2], x2 = 0.7251 | 0.278 | –
[2], x2 = 0.7786 | 0.248 | –
[2], x2 = 0.8406 | 0.207 | –
[2], x2 = 0.8755 | 0.178 | –
[2], x2 = 0.9134 | 0.134 | –
[2], x2 = 0.9336 | 0.109 | –
[2], x2 = 0.9547 | 0.0791 | –
[2], x2 = 0.9768 | 0.0433 | –

CCCCCCCCO [octan-1-ol] + C[S+](C)[O-]
Details | excess molar enthalpy [kcal/mol] | molar heat capacity at constant pressure [J/K/mol]
[1], x2 = 0.0953 | – | 296.5
[1], x2 = 0.1847 | – | 284.2
[1], x2 = 0.3137 | – | 264.7
[1], x2 = 0.3478 | – | 256.2
[1], x2 = 0.4629 | – | 241.9
[1], x2 = 0.5855 | – | 221.6
[1], x2 = 0.6299 | – | 215.1
[1], x2 = 0.7302 | – | 200.6
[1], x2 = 0.7656 | – | 193.2
[1], x2 = 0.842 | – | 182.1
[1], x2 = 0.8956 | – | 173.1
[1], x2 = 0.9603 | – | 162.4
[2], x2 = 0.0847 | 0.112 | –
[2], x2 = 0.1562 | 0.195 | –
[2], x2 = 0.2173 | 0.257 | –
[2], x2 = 0.2702 | 0.29 | –
[2], x2 = 0.3571 | 0.331 | –
[2], x2 = 0.4254 | 0.35 | –
[2], x2 = 0.5262 | 0.354 | –
[2], x2 = 0.5968 | 0.351 | –
[2], x2 = 0.6896 | 0.332 | –
[2], x2 = 0.7692 | 0.304 | –
[2], x2 = 0.8163 | 0.273 | –
[2], x2 = 0.8696 | 0.228 | –
[2], x2 = 0.8988 | 0.195 | –
[2], x2 = 0.9302 | 0.15 | –
[2], x2 = 0.9467 | 0.121 | –
[2], x2 = 0.9638 | 0.0868 | –
[2], x2 = 0.9816 | 0.0468 | –

CCCCCCCCO [octan-1-ol]
[3]
Details | molar heat capacity at constant pressure [J/K/mol]
288.15 K | 294.2
293.15 K | 300.3
298.15 K | 304.4
303.15 K | 309.2
308.15 K | 314.4
313.15 K | 319.5
318.15 K | 326.2
323.15 K | 332.7

Details | mass density [kg/m3]
[4] | 818.24

C[S+](C)[O-] [dimethyl sulfoxide] + CO
Details | excess molar enthalpy [kcal/mol] | molar heat capacity at constant pressure [J/K/mol]
[1], x1 = 0.0308 | – | 84
[1], x1 = 0.061 | – | 85.8
[1], x1 = 0.1103 | – | 88.3
[1], x1 = 0.197 | – | 93.9
[1], x1 = 0.2818 | – | 97.8
[1], x1 = 0.3571 | – | 102.3
[1], x1 = 0.4676 | – | 109.7
[1], x1 = 0.5886 | – | 116.1
[1], x1 = 0.6833 | – | 124.6
[1], x1 = 0.8398 | – | 137.5
[1], x1 = 0.9068 | – | 142.5
[1], x1 = 0.923 | – | 144.6
[2], x1 = 0.0176 | 0.00191 | –
[2], x1 = 0.0233 | 0.00215 | –
[2], x1 = 0.0455 | 0.000717 | –
[2], x1 = 0.0667 | -0.00263 | –
[2], x1 = 0.087 | -0.00765 | –
[2], x1 = 0.1251 | -0.0194 | –
[2], x1 = 0.1601 | -0.0318 | –
[2], x1 = 0.2223 | -0.0543 | –
[2], x1 = 0.276 | -0.0712 | –
[2], x1 = 0.3639 | -0.0908 | –
[2], x1 = 0.4619 | -0.102 | –
[2], x1 = 0.5336 | -0.103 | –
[2], x1 = 0.6318 | -0.0985 | –
[2], x1 = 0.6959 | -0.0891 | –
[2], x1 = 0.7744 | -0.0758 | –
[2], x1 = 0.8207 | -0.0605 | –
[2], x1 = 0.8728 | -0.0442 | –
[2], x1 = 0.9321 | -0.0232 | –

CCCCCCCCCCO [decan-1-ol]
[3]
Details | molar heat capacity at constant pressure [J/K/mol]
288.15 K | 360.1
293.15 K | 368.5
298.15 K | 373.9
303.15 K | 379.3
308.15 K | 385.3
313.15 K | 390.6
318.15 K | 395.9
323.15 K | 401.3

Details | mass density [kg/m3]
[4] | 822.95

CCO [ethanol]
[3]
Details | molar heat capacity at constant pressure [J/K/mol]
288.15 K | 108.8
293.15 K | 111
298.15 K | 113.5
303.15 K | 115.7
308.15 K | 118.6
313.15 K | 121.6
318.15 K | 125.1
323.15 K | 128.2

Details | mass density [kg/m3]
[4] | 780.79

CCCCO [butan-1-ol]
[3]
Details | molar heat capacity at constant pressure [J/K/mol]
288.15 K | 166.2
293.15 K | 171.8
298.15 K | 175.3
303.15 K | 178.9
308.15 K | 182.8
313.15 K | 186.6
318.15 K | 190.8
323.15 K | 194.7

Details | mass density [kg/m3]
[4] | 801.98
